Active and inactive are the calls of the source.
Key:
[1] = THP-1 cell cytotoxicity, dose response, cytotoxicity control for Vif-APOBEC3G degradation inhibitor project, THP-1 cells (AID 1117359); format: functional; conditions: Human immunodeficiency virus 1, THP-1
[2] = P. falciparum 3D7-ScDHODH growth inhibitors, dose response, SYBR Green, dry powder samples (AID 1159570); format: functional, cell-based;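 note: parasite growth measured after 72 hours of compound exposure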
[3] = HepG2 cell cytotoxicity, dose response, cytotoxicity control, plate reader, dry powder samples (AID 1159569); format: functional, cell-based;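 note: inhibitor potency with signal falling toward the positive control level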
[4] = P. falciparum Dd2 growth inhibitors, dose response, SYBR Green, cherry-picked samples (AID 1159567); format: functional, cell-based
[5] = P. falciparum Dd2 growth inhibitors, dose response, SYBR Green, dry powder samples (AID 1159566); format: functional, cell-based;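 note: potency for growth inhibition with lower SYBR green DNA signal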
[6] = P. falciparum ATP4 D1247Y mutant growth inhibitors, dose response, NITD609-resistant line, SYBR Green, dry powder (AID 1159571); format: functional, cell-based;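 note: parasites synchronized at ring stage by sorbitol before testing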
[7] = HepG2 cell cytotoxicity, dose response, cytotoxicity control, cherry-picked samples (AID 1159577); format: functional, cell-based

| SMILES | CC50 [1] | AC50 [2] | AC50 [3] | AC50 [4] | AC50 [5] | AC50 [6] | AC50 [7] |
| --- | --- | --- | --- | --- | --- | --- | --- |
| NCCC(=O)N1c2ccccc2Sc2ccccc21 | > 40000 nM (active) | – | – | – | – | – | – |
| CCCN1[C@H](CO)[C@H](c2ccc(C3=CCCC3)cc2)[C@H]1CN(C(C)=O)C1CCCC1 | – | 3260 nM (active) | 72100 nM (active) | 1920 nM (active) | 1750 nM (active) | 1600 nM (active) | – |
| OC[C@@H]1Nc2ccc(C#Cc3cccc(F)c3)cc2[C@H]2NCC[C@@H]12 | – | 1150 nM (active) | 17500 nM (active) | 3010 nM (active) | 804 nM (active) | 2340 nM (active) | 25600 nM (active) |
| N#C[C@@H]1[C@@H](c2ccccc2C2=CCCC2)[C@@H](CO)N1C(=O)NC1CCCC1 | – | 10900 nM (active) | 56800 nM (active) | 791 nM (active) | 592 nM (active) | 744 nM (active) | – |
| COc1ccc(C#Cc2cccc(-c3nc(C(=O)Nc4ccc(-c5ccccc5)cc4)cc4c3[C@@H](CCO)N([S+]([O-])C(C)(C)C)C4)c2)cc1OC (stereo partly specified) | – | 1120 nM (active) | 24100 nM (active) | 995 nM (active) | 486 nM (active) | 621 nM (active) | > 39000 nM (inactive) |
| C[C@H](CO)N1C[C@H](C)[C@@H](CN(C)C(=O)CCCN(C)C)OCc2cnnn2CCCC1=O | – | – | – | – | – | – | > 42000 nM (inactive) |
| COc1cccc(CN2C[C@@H]3N[C@H](C2)[C@@H]3c2ccc(-c3ccc(C#N)cc3)cc2)c1 | – | – | – | 3090 nM (active) | – | – | 9630 nM (active) |

Reference: ChEMBL document CHEMBL1201862, “PubChem BioAssay data set” (2004)
